Results taken from article PMC8587756, “Spirostanol Saponins from Flowers of Allium Porrum and Related Compounds Indicating Cytotoxic Activity and Affecting Nitric Oxide Production Inhibitory Effect in Peritoneal Macrophages” (Molecules, 2021).
pIC50: −log10 of the molar value. Read-outs that look alike come from different tables or passages of the source.

How the values were obtained:
[1] = test system: murine leukemia cells P388; design: method as in PMID 9836426; conditions: cancer murine leukemia cells P388; cited from earlier work
[2] = test system: NO production in mouse peritoneal cells; test: Nitric oxide production induced by LPS and IFN-γ in mouse peritoneal cells (Griess reagent); format: cell-based; conditions: for effect on production of NO (in words): LPS + IFN-γ, 24 h, Figure 3B; for inhibitory effects (in words): tested up to 25 µM; for pIC50: LPS 0.1 ng/mL + IFN-γ 5 ng/mL, nitrites at 24 h, read-out: Nitric Oxide, IC50 (95% Limits of Confidence)
Description: Biological effects of studied compounds were evaluated in vitro, using mouse (C57BL6, Charles River Deutschland, Sulzfeld, Germany) peritoneal cells. Animals, killed by cervical dislocation, were i.p. injected with 8 mL of sterile saline. Pooled peritoneal cells collected from mice (n = 4–6 in individual experiments) were washed, re-suspended in culture medium, and seeded into 96-well round-bottom microplates (Costar, Corning, NY, USA) in 100-μL volumes, 2 × 10^5 cells/well. All experimental variants were run in duplicate. Complete RPMI-1640 culture medium (Sigma-Aldrich, St. Louis, MO, USA) contained 10% heat-inactivated foetal bovine serum, 2 mM L-glutamine, 50 μg/mL gentamicin, and 5 × 10^−5 M 2-mercaptoethanol (all Sigma-Aldrich). Cultures were maintained at 37 °C, 5% CO2 in humidified incubator (Sanyo Electric Biomedical, Osaka, Japan). The Institution Animal Ethics Committee (No. 13/2006) approved the animal welfare and all experimental procedures.
High output NO production was induced by mixture of lipopolysaccharide (LPS from E. coli 0111:B4, 0.1 ng/mL; Sigma) and murine recombinant interferon-γ (IFN-γ, 5 ng/mL; R&D Systems, Minneapolis, MN, USA) in mouse peritoneal cells. Tested compounds were applied concomitantly with these priming stimuli. The concentration of nitrites in supernatants of cells was assayed at the interval of 24 h. It was detected in individual, cell-free samples (50 μL) incubated 5 min at ambient temperature with an aliquot of a Griess reagent (1% sulphanilamide/0.1% naphtylendiamine/2.5% H3PO4). The absorbance at 540 nm was recorded using a microplate spectrophotometer (Tecan, Grödig, Austria). A nitrite calibration curve was used to convert absorbance to μM nitrite.
Estimates of 50% inhibitory concentrations of compounds (IC50, and CC50), correlation analysis, and graphical presentation of data were done using the Prism program (GraphPad Software, San Diego, CA, USA).

[3] = Cell viability / cytotoxicity, LDH assay in mouse peritoneal cells; format: cell-based
Description: (§1) Biological effects of studied compounds were evaluated in vitro, using mouse (C57BL6, Charles River Deutschland, Sulzfeld, Germany) peritoneal cells. Animals, killed by cervical dislocation, were i.p. injected with 8 mL of sterile saline. Pooled peritoneal cells collected from mice (n = 4–6 in individual experiments) were washed, re-suspended in culture medium, and seeded into 96-well round-bottom microplates (Costar, Corning, NY, USA) in 100-μL volumes, 2 × 10^5 cells/well. All experimental variants were run in duplicate. […] Cultures were maintained at 37 °C, 5% CO2 in humidified incubator (Sanyo Electric Biomedical, Osaka, Japan).
(§2) Viability of cells was analysed using the LDH (lactate dehydrogenase) assay. It is based on the determination of lactate dehydrogenase activity released from the cytosol of damaged cells into cell supernatant. The supernatants were harvested at the interval of 22 h of culture, diluted 1:1, and mixed with an aliquot of the LDH kit (Sigma-Aldrich, St. Louis, MO, USA). After 30-min incubation in the dark at ambient temperature, the reaction was stopped with 2 N HCl. […] Triton (1%) was used to induce 100% cell death. All control and experimental variants were run in quadruplicate.

mouse peritoneal cells = test: as above; format: cell-based
Description: as §1, §2

[4] = test system: murine monocyte/macrophage cell line J-774; design: method as in PMID 9358643; conditions: 24 h, MTT assay; cited from earlier work
[5] = test system: RAW 246.7 macrophages and lymphocytes; design: method as in PMID 26329920; conditions: different concentrations, 72 h, MTT assay; cited from earlier work
[6] = mouse peritoneal cells, LDH assay, 24 h, Figure 3A
[7] = C57BL6, mouse peritoneal cells, LDH assay, cultured 24 h (supernatants harvested at 22 h), read-out: Cytotoxicity CC50 (95% Limits of Confidence)

Compound: C[C@@H]1CC[C@@]2(OC1)O[C@H]1CC3C4C[C@@H](O)C5C[C@@H](O[C@@H]6O[C@H](CO)[C@H](O[C@@H]7O[C@H](CO)[C@@H](O)[C@H](O[C@@H]8OC[C@@H](O)[C@H](O)[C@H]8O)[C@H]7O[C@@H]7O[C@H](CO)[C@@H](O)[C@H](O)[C@H]7O)[C@H](O)[C@H]6O)[C@H](O)C[C@]5(C)C4CC[C@]3(C)C1[C@@H]2C (stereo partly shown) [Compound 1, aginoside]
- cytotoxicity IC50 [1]: 2.1 µg/mL
- effect on production of NO (in words) [2]: inhibited the production of NO
- CC50 at 22 h ([3]; C57BL6, mouse): 11.1 µM
- cytotoxic effects in model immune cells (in words) (mouse peritoneal cells): strong cytotoxic effects
- concentration at onset of cell viability decline (mouse peritoneal cells; [6]): approximately 4 µM

Compound: C[C@@H]1CC[C@@]2(OC1)O[C@H]1CC3C4CCC5C[C@@H](O[C@@H]6O[C@H](CO)[C@H](O[C@@H]7O[C@H](CO)[C@@H](O)[C@H](O[C@@H]8OC[C@@H](O)[C@H](O)[C@H]8O)[C@H]7O[C@@H]7O[C@H](CO)[C@@H](O)[C@H](O)[C@H]7O)[C@H](O)[C@H]6O)[C@H](O)C[C@]5(C)C4CC[C@]3(C)C1[C@@H]2C (stereo partly shown) [Compound 2, 6-deoxy-aginoside]
- effect on production of NO (in words) [2]: inhibited the production of NO
- CC50 at 22 h ([3]; C57BL6, mouse): 5.7 µM
- cytotoxic effects in model immune cells (in words) (mouse peritoneal cells): strong cytotoxic effects
- concentration at onset of cell viability decline (mouse peritoneal cells; [6]): approximately 4 µM

Compound: CC1CCC2(OC1)OC1CC3C4CC(O)C5CC(OC6OC(CO)C(OC7OC(CO)C(O)C(OC8OCC(O)C(O)C8O)C7OC7OC(CO)C(O)C(OC8OC(CO)C(O)C(O)C8O)C7O)C(O)C6O)C(O)CC5(C)C4CCC3(C)C1C2C (stereo not shown) [Compound 3]
- effect on production of NO (in words) [2]: inhibited the production of NO
- CC50 at 22 h ([3]; C57BL6, mouse): 7.21 µM
- cytotoxic effects in model immune cells (in words) (mouse peritoneal cells): strong cytotoxic effects
- concentration at onset of cell viability decline (mouse peritoneal cells; [6]): approximately 4 µM

Compound: CC1CC[C@@]2(OC1)O[C@H]1C[C@H]3[C@@H]4C[C@@H](O)C5C[C@@H](O)[C@H](O)C[C@]5(C)[C@H]4CC[C@]3(C)[C@H]1[C@@H]2C (stereo partly drawn) [Compound 4, spirostan-2α, 3β, 6β–triol]
- cytotoxicity (in words) [4]: did not show cytotoxicity
- inhibitory effects (in words) [2]: devoid of any inhibitory effects
- CC50 at 22 h ([3]; C57BL6, mouse): > 100 µM

Compound: C[C@@H]1CC[C@@]2(OC1)O[C@H]1[C@@H](O)[C@H]3[C@@H]4CC[C@H]5C[C@@H](O[C@@H]6O[C@H](CO)[C@H](O[C@@H]7O[C@H](CO)[C@@H](O)[C@H](O[C@@H]8OC[C@@H](O)[C@H](O)[C@H]8O)[C@H]7O[C@@H]7O[C@H](CO)[C@H](O)[C@H](O[C@@H]8O[C@H](CO)[C@@H](O)[C@H](O)[C@H]8O)[C@H]7O)[C@H](O)[C@H]6O)[C@H](O)C[C@]5(C)[C@H]4CC[C@]3(C)[C@H]1[C@@H]2C [Compound 5, digitonin, reference compound]
- pIC50 [2]: 5.26
- effect on production of NO (in words) [2]: inhibited the production of NO
- CC50 at 22 h [3, 7]: 5.83 µM
- concentration at onset of cell viability decline (mouse peritoneal cells; [6]): approximately 4 µM
- cytotoxic effects in model immune cells (in words) (mouse peritoneal cells; [6]): strong cytotoxic effects

Compound: C[C@@H]1CC[C@@]2(OC1)O[C@H]1C[C@H]3[C@@H]4CC=C5C[C@@H](O)CC[C@]5(C)[C@H]4CC[C@]3(C)[C@H]1[C@@H]2C [Compound 7, diosgenin]
- cytotoxicity (in words) [5]: No changes in cytotoxicity
- pIC50 [2]: < 4.00
- inhibitory effects (in words) [2]: devoid of any inhibitory effects
- CC50 at 22 h [3, 7]: > 100 µM

Compound: C[C@@H]1CC[C@@]2(OC1)O[C@H]1C[C@H]3[C@@H]4CC=C5C[C@@H](O[C@@H]6O[C@H](CO)[C@@H](O[C@@H]7O[C@@H](C)[C@H](O)[C@@H](O)[C@H]7O)[C@H](O)[C@H]6O[C@@H]6O[C@@H](C)[C@H](O)[C@@H](O)[C@H]6O)CC[C@]5(C)[C@H]4CC[C@]3(C)[C@H]1[C@@H]2C [dioscin, reference compound]
- cytotoxicity IC50 [1]: 0.092 µg/mL

Compound: tomatonin [Compound 6, reference compound]
- pIC50 [2]: 5.14
- effect on production of NO (in words) [2]: inhibited the production of NO
- concentration at onset of cell viability decline (mouse peritoneal cells; [6]): approximately 4 µM
- cytotoxic effects in model immune cells (in words) (mouse peritoneal cells; [6]): strong cytotoxic effects
- CC50 (mouse peritoneal cells; mouse peritoneal cells, LDH assay, cultured 24 h (supernatants harvested at 22 h), read-out: Cytotoxicity CC50 (95% Limits of Confidence)): 9.9 µM
